Assay results: patent US11376264B2, “Use of bromodomain-containing protein 9 antagonists in combination with vitamin D receptor agonists in diabetes treatment” (Salk Institute for Biological Studies, priority 2017, dated 2022)
“Also recorded” adds a separate entry of the source.

Columns and labels:
[1] = tested on: VDR association with BAF/PBAF complex components; test: VDR interactome (MudPIT, Western blot) in INS1 cells expressing HA-tagged VDR; format: cell-based, rat; conditions: for VDR interactions of key components of the PBAF complex (PBRM1, ARID2): INS1 cells expressing HA-tagged VDR; for VDR association of proteins common to the BAF and PBAF complexes: e.g. SMARCA1, SMARCA2, SMARCA4
Description: Immunoprecipitations were performed as described previously (He et al., 2010, Mol. Cell 38, 428-38). Briefly, cells are lysed using ice-cold lysis buffer (HEPES 20 mM pH8, EDTA 0.2 mM, NaCl 0.3 mM, NP40 0.5%, 15% glycerol) for 15 min, and after centrifuging the supernatant was collected. For HA- or Flag-tagged proteins, immunoprecipitations were performed using HA-magnetic beads (Pierce, P188836), or Flag-magnetic beads (Sigma, M8823) for 1.5 hr at 4° C. For other immunoprecipitations, primary antibodies were incubated with lysates for 2 hr followed by Protein A magnetic beads (Life Technologies, 10001D). After 3 washes with wash buffer (HEPES 10 mM pH8, EDTA 0.2 mM, NaCl 0.3 mM, NP40 0.1%, 15% glycerol), the beads were boiled with NuPage LDS sample buffer and the lysates were stored at -20° C. Samples were precipitated by methanol/chloroform. Dried pellets were dissolved in 8 M urea/100 mM TEAB, pH 8.5. […] Proteins were digested overnight at 37° C. in 2 M urea/100 mM TEAB, pH 8.5, with trypsin (Promega). Digestion was quenched with formic acid, 5% final concentration. The digested samples were analyzed on a Fusion Orbitrap tribrid mass spectrometer (Thermo). The digest was injected directly onto a 30 cm, 75 um ID column packed with BEH 1.7 um C18 resin (Waters). Samples were separated at a flow rate of 200 nl/min on a nLC 1000 (Thermo). […] Column was re-equilibrated with 20 ul of buffer A prior to the injection of sample. Peptides were eluted directly from the tip of the column and nanosprayed directly into the mass spectrometer by application of 2.5 kV voltage at the back of the column. The Orbitrap Fusion was operated in a data-dependent mode. Full MS1 scans were collected in the Orbitrap at […] resolution with a mass range of 400 to 1600 m/z and an AGC target of 5e5. The cycle time was set to 3 sec, and within this 3 sec the most abundant ions per scan were selected for CID MS/MS in the ion trap with an AGC target of 1e4 and minimum intensity of 5000. Maximum fill times were set to 50 ms and 100 ms for MS and MS/MS scans respectively. Quadrupole isolation at 1.6m/z was used, monoisotopic precursor selection was enabled and dynamic exclusion was used with exclusion duration of 5 sec. Protein and peptide identification were done with Integrated Proteomics Pipeline-IP2 (Integrated Proteomics Applications). Tandem mass spectra were extracted from raw files using RawConverter (ref1) and searched with ProLuCID (ref2) against rat UniProt database. The search space included all fully-tryptic and half-tryptic peptide candidates. Carbamidomethylation on cysteine was considered as a static modification. Acetylation (42.010565) was considered as a differential modification on Lysine and the N-terminus. […]

[2] = tested on: human islets; test: Long term ex vivo human islet cultures; format: cell-based; conditions: for insulin secretion: 1 week; for islet survival (cell numbers): 4 weeks
Description: Mouse pancreatic islets were isolated as previously described (Yoshihara et al., 2010, Nat. Commun 1:127) with slight modification. Briefly, 0.5 mg/ml collagenase P (Roche REF 1213873001, diluted in HBSS buffer, GIBCO, 14170-112) was injected through the common bile duct, and the perfused pancreas dissected and incubated at 37° C. for 21 min. Digested exocrine cells and intact islets were separated via centrifugation (900×g for 15 min) over Histopaque-1077 (Sigma, H8889), and intact islets were manually selected. Human islets were provided by the Integrated Islets Distribution Program (see details below).

[3] = tested on: mouse islets; test: Isolated mouse islets cultured with IL1β ± Cal (RNA-Seq); format: cell-based
Description: Total RNA was isolated from tissue or cell pellets using the RNA mini kit (Qiagen). Sequencing libraries were prepared from 100-500 ng total RNA using the TruSeq RNA Sample Preparation Kit v2 (Illumina) according to the manufacturer's protocol. Briefly, mRNA was purified, fragmented, and used for first-, then second-strand cDNA synthesis followed by adenylation of 3′ ends. Samples were ligated to unique adapters and subjected to PCR amplification. Libraries were then validated using the 2100 BioAnalyzer (Agilent), normalized, and pooled for sequencing. RNA-Seq libraries prepared from two biological replicates for each experimental condition were sequenced on the Illumina HiSeq 2000 using bar-coded multiplexing and a 100 bp read length.
Image analysis and base calling were performed with Illumina CASAVA-1.8.2. This yielded a median of 29.9M usable reads per sample. Short read sequences were mapped to a UCSC mm9 reference sequence using the RNA-seq aligner STAR (Dobin et al., 2013). Known splice junctions from mm9 were supplied to the aligner and de novo junction discovery was also permitted. Differential gene expression analysis, statistical testing and annotation were performed using Cuffdiff 2 (Trapnell et al., 2013). Transcript expression was calculated as gene-level relative abundance in fragments per kilobase of exon model per million mapped fragments and employed correction for transcript abundance bias (Roberts et al., 2011). RNA-Seq results for genes of interest were also explored visually using the UCSC Genome Browser.
Mouse pancreatic islets were isolated as previously described (Yoshihara et al., 2010, Nat. Commun 1:127) with slight modification. Briefly, 0.5 mg/ml collagenase P (Roche REF 1213873001, diluted in HBSS buffer, GIBCO, 14170-112) was injected through the common bile duct, and the perfused pancreas dissected and incubated at 37° C. for 21 min. Digested exocrine cells and intact islets were separated via centrifugation (900×g for 15 min) over Histopaque-1077 (Sigma, H8889), and intact islets were manually selected. […]

[4] = tested on: Nfkbia (IκBα); test: Nfkbia expression in IL1β-stressed INS1 cells (qPCR); format: cell-based, rat
Description: Samples were run in triplicate and expression was normalized to the levels of the housekeeping controls Rplp0 (36b4) for human and mouse. Samples were analyzed by qPCR, using SYBR Green dye (Bio-rad). Statistical comparisons were made using Student's t test. Error bars are mean±SEM. Primers used are shown below: INS1 cells were cultured at 37° C. in 5% C02 in air in RPMI-1640 (Sigma Aldrich) supplemented with 10% (v/v) fetal bovine serum, 1% (v/v) Antibiotic-Antimycotic (Gibco) 10 mM HEPES, 2 mM glutamax, 1 mM sodium pyruvate, and 50 μM β-mercaptoethanol (RPMI for INS1 medium). INS1 cells were transfected with Lipofectamine RNAiMAX (Invitrogen) for 24 hr, […] (VDR: L-097753-02-0005, PCAF: L-085879-02-0005, BAF180: L-088113-02-0005, non-targeting pool: D-001810-10-05).

[5] = tested on: BAF/PBAF complex binding at Nfkbia, Nfkbiz, Camk4; test: ChIP-qPCR of ARID1B and BAF180 at VDR target loci; format: cell-based, rat
Excerpt: The experimental procedure for ChIP was as previously described (Barish et al., 2010, Genes Dev 24:2760-5). Briefly, after fixation, nuclei from were isolated, lysed, and sheared with a Diagenode Bioruptor to yield DNA fragment sizes of 200-1,000 bp followed by immunoprecipitation.

C=C1/C(=C\C=C2/CCC[C@]3(C)[C@@H]([C@H](C)/C=C/[C@@H](O)C4CC4)CC[C@@H]23)C[C@@H](O)C[C@@H]1O [Cal, calcipotriol]
VDR interactions of key components of the PBAF complex (PBRM1, ARID2) [1]: significantly increased
VDR association of proteins common to the BAF and PBAF complexes [1]: increased
insulin secretion [2]: increased
insulin secretion ([2]; listed as Calcipotriol): Increases
islet survival (cell numbers) [2]: increased
islet survival (cell numbers) ([2]; listed as Calcipotriol): Increases
IL1β-induced damage / gene expression changes in islets ([3]; 48 or 96 hours): protected islets from IL1β-induced damage; also recorded: partially rescued
number of genes induced by IL1β and rescued ([3]; 96 hours): 332 genes
number of genes suppressed by IL1β and rescued ([3]; 96 hours): 169 genes
Nfkbia expression ([4]; 30 minutes IL1β exposure): increased
Nfkbia expression ([4]; IL1β stress, after 24 hrs): not sufficient to induce a significant increase

CCn1cc(-c2cccc(C(F)(F)F)c2)c2sc(C(=N)NC3CCS(=O)(=O)CC3)cc2c1=O [iBRD9]
VDR interactions of key components of the PBAF complex (PBRM1, ARID2) [1]: significantly increased
VDR association of proteins common to the BAF and PBAF complexes [1]: increased
ARID1B (BAF complex) binding at target gene loci [5]: reduces BAF complex binding
BAF180 (PBAF complex) binding at target gene loci [5]: increases PBAF complex binding
